Read-outs that look alike come from different tables or passages of the source.
How the values were obtained:
[1] = tested on: NCI/ADR-RES; assay: NCI 60 antitumor screening (single dose / five doses); type: cell-based; settings: Homo sapiens; for inhibition at 10 µM: read-out: Growth inhibition percentage (GI %); for GI50: five doses (0.01–100 μM), read-out: GI50
[2] = tested on: HOP-92; assay: as above; type: cell-based; settings: Homo sapiens; for GI50: HOP-92, five doses (0.01–100 μM), read-out: GI50
[3] = tested on: MDA-MB-468; assay: as above; type: cell-based; settings: Homo sapiens; for GI50: MDA-MB-468, five doses (0.01–100 μM), read-out: GI50
[4] = tested on: DU-145; assay: as above; type: cell-based; settings: Homo sapiens; for GI50: DU-145, five doses (0.01–100 μM), read-out: GI50
[5] = tested on: SK-MEL-28; assay: as above; type: cell-based; settings: Homo sapiens; for GI50: SK-MEL-28, five doses (0.01–100 μM), read-out: GI50
[6] = target: T1, IDH2^R140Q (Homo sapiens, UniProt P48735, R140Q); assay: biochemical
T1 sequence (P48735 40-452 R140Q): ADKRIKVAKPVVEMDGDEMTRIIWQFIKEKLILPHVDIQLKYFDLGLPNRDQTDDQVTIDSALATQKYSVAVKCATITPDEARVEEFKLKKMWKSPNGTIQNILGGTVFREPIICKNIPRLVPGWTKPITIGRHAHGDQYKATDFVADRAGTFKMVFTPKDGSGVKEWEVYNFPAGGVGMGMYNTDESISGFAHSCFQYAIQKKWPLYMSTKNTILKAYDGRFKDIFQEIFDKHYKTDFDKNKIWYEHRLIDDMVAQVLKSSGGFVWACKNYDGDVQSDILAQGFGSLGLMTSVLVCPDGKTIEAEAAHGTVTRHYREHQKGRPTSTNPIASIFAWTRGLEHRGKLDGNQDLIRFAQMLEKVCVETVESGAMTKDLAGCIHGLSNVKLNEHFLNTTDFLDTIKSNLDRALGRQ

[7] = NCI/ADR-RES (ovarian cancer), single dose 10 μM
[8] = HOP-92 (non-small cell lung cancer), single dose 10 μM, read-out: Growth inhibition percentage (GI %)
[9] = MDA-MB-468 (breast cancer), single dose 10 μM, read-out: Growth inhibition percentage (GI %)
[10] = DU-145 (prostate cancer), single dose 10 μM, read-out: Growth inhibition percentage (GI %)
[11] = SK-MEL-28 (melanoma), single dose 10 μM, read-out: Growth inhibition percentage (GI %)
[12] = HOP-92, read-out: Growth inhibition percentage (GI %)
[13] = MDA-MB-468, read-out: Growth inhibition percentage (GI %)
[14] = DU-145, read-out: Growth inhibition percentage (GI %)
[15] = SK-MEL-28, read-out: Growth inhibition percentage (GI %)

| SMILES | inhibition at 10 µM [1, 7] [%] | GI50 ([1]; NCI/ADR-RES) [nM] | inhibition at 10 µM [2, 8] [%] | GI50 [2] [nM] | inhibition at 10 µM [3, 9] [%] | GI50 [3] [nM] | inhibition at 10 µM [4, 10] [%] | GI50 [4] [nM] | inhibition at 10 µM [5, 11] [%] | GI50 [5] [nM] | IC50 [6] [nM] | inhibition at 10 µM ([1]; NCI/ADR-RES) [%] | inhibition at 10 µM [2, 12] [%] | inhibition at 10 µM [3, 13] [%] | inhibition at 10 µM [4, 14] [%] | inhibition at 10 µM [5, 15] [%] |
| --- | --- | --- | --- | --- | --- | --- | --- | --- | --- | --- | --- | --- | --- | --- | --- | --- |
| Oc1ccccc1/C=N/Nc1nc(N/N=C/c2ccccc2O)nc(N2CCOCC2)n1 [compound 6a, 2-[(1e)-(2-{4-[(E)-2-[(2-Hydroxyphenyl)methylidene]hydrazin-1-yl]-6-(morpholin-4-yl)-1,3,5-triazin-2-yl}hydrazin-1-ylidene)methyl]phenol] | 77.1 | 690 | 87.2 | 1650 | 60.8 | 4110 | 64.5 | 6090 | 72 | 3200 | 373 ± 18.2 |  |  |  |  |  |
| Brc1ccccc1/C=N/Nc1nc(N/N=C/c2ccccc2Br)nc(N2CCOCC2)n1 [compound 6b, 2,4-Bis[(E)-2-[(2-bromophenyl)methylidene]hydrazin-1-yl]-6-(morpholin-4-yl)-1,3,5-triazine] | 8.51 |  | -12.3 |  | 9.74 |  | 1.72 |  | 0.72 |  |  |  |  |  |  |  |
| Clc1cccc(/C=N/Nc2nc(N/N=C/c3cccc(Cl)c3)nc(N3CCOCC3)n2)c1 [compound 6d, 2,4-Bis[(E)-2-[(3-chlorophenyl)methylidene]hydrazin-1-yl]-6-(morpholin-4-yl)-1,3,5-triazine] | 38.2 | 4580 | 34.5 | 2170 | 69.2 | 1650 | 57.5 | 2620 | 70.2 | 2860 | 1870 ± 91.2 |  |  |  |  |  |
| O=[N+]([O-])c1cccc(/C=N/Nc2nc(N/N=C/c3cccc([N+](=O)[O-])c3)nc(N3CCOCC3)n2)c1 [compound 6f, 2-(Morpholin-4-yl)-4,6-bis[(E)-2-[(3-nitrophenyl)methylidene]hydrazin-1-yl]-1,3,5-triazine] |  |  |  |  |  |  |  |  |  |  |  | 30.9 | 14.2 | 1.3 | 31.1 | 17.9 |
| Clc1cccc(/C=N/Nc2nc(N/N=C/c3cccc(Cl)c3Cl)nc(N3CCOCC3)n2)c1Cl [compound 6h, 2,4-Bis[(E)-2-[(2,3-Dichlorophenyl)methylidene]hydrazin-1-yl]-6-(morpholin-4-yl)-1,3,5-triazine] | 34.2 |  | -5.67 |  | 32.8 |  | -2.63 |  | 2.23 |  |  |  |  |  |  |  |
| O=[N+]([O-])c1cc(/C=N/Nc2nc(N/N=C/c3ccc(Cl)c([N+](=O)[O-])c3)nc(N3CCOCC3)n2)ccc1Cl [compound 6i, 2,4-Bis[(E)-2-[(4-Chloro-3-nitrophenyl)methylidene]hydrazin-1-yl]-6-(morpholin-4-yl)-1,3,5-triazine] |  |  |  |  |  |  |  |  |  |  |  | -0.3 | -20.3 | 27.1 | -11.3 | -4.35 |
| Oc1ccc(/C=N/Nc2nc(N/N=C/c3ccc(O)c(O)c3)nc(N3CCOCC3)n2)cc1O [compound 6j, 4-[(1e)-(2-{4-[(E)-2-[(3,4-Dihydroxyphenyl)methylidene]hydrazin-1-yl]-6-(morpholin-4-yl)-1,3,5-triazin-2-yl}hydrazin-1-ylidene)methyl]benzene-1,2-diol] | -5.32 |  | -7.35 |  | 6.49 |  | -5.37 |  | -2.58 |  |  |  |  |  |  |  |
| C(=N\Nc1nc(N/N=C/c2ccc3c(c2)OCO3)nc(N2CCOCC2)n1)/c1ccc2c(c1)OCO2 [compound 6k, 2,4-Bis[(E)-2-(2H-1,3-Benzodioxol-5-ylmethylidene)hydrazin-1-yl]-6-(morpholin-4-yl)-1,3,5-triazine] | 23.3 |  | 8.47 |  | 32.1 |  | 23.9 |  | 12.8 |  |  |  |  |  |  |  |
| Brc1ccccc1/C=N/Nc1nc(N/N=C/c2ccccc2Br)nc(N2CCCCC2)n1 [compound 7b, 2,4-Bis[(E)-2-[(2-Bromophenyl)methylidene]hydrazin-1-yl]-6-(piperidin-1-yl)-1,3,5-triazine] | -2.41 |  | -33 |  | 12.4 |  | -4.47 |  | -0.81 |  |  |  |  |  |  |  |
| O=[N+]([O-])c1cccc(/C=N/Nc2nc(N/N=C/c3cccc([N+](=O)[O-])c3)nc(N3CCCCC3)n2)c1 [compound 7f, 2,4-Bis[(E)-2-[(3-Nitrophenyl)methylidene]hydrazin-1-yl]-6-(piperidin-1-yl)-1,3,5-triazine] |  |  |  |  |  |  |  |  |  |  |  | 32.8 | 20.9 | 26.4 | 29.8 | 31.4 |
| Clc1cccc(/C=N/Nc2nc(N/N=C/c3cccc(Cl)c3Cl)nc(N3CCCCC3)n2)c1Cl [compound 7h, 2,4-Bis[(E)-2-[(2,3-Dichlorophenyl)methylidene]hydrazin-1-yl]-6-(piperidin-1-yl)-1,3,5-triazine] | 32.6 |  | 13.8 |  | 7.19 |  | 26.6 |  | 5.78 |  |  |  |  |  |  |  |
| O=[N+]([O-])c1cc(/C=N/Nc2nc(N/N=C/c3ccc(Cl)c([N+](=O)[O-])c3)nc(N3CCCCC3)n2)ccc1Cl [compound 7i, 2,4-Bis[(E)-2-[(4-Chloro-3-nitrophenyl)methylidene]hydrazin-1-yl]-6-(piperidin-1-yl)-1,3,5-triazine] |  |  |  |  |  |  |  |  |  |  |  | 69.8 | -23.1 | 31.2 | 70.4 | 22.2 |
| Oc1ccc(/C=N/Nc2nc(N/N=C/c3ccc(O)c(O)c3)nc(N3CCCCC3)n2)cc1O [compound 7j, 4-[(1e)-(2-{4-[(E)-2-[(3,4-Dihydroxyphenyl)methylidene]hydrazin-1-yl]-6-(piperidin-1-yl)-1,3,5-triazin-2-yl}hydrazin-1-ylidene)methyl]benzene-1,2-diol] | -3.16 |  | -9.47 |  | 10.2 |  | 0.25 |  | -7.04 |  |  |  |  |  |  |  |
| C(=N\Nc1nc(N/N=C/c2ccc3c(c2)OCO3)nc(N2CCCCC2)n1)/c1ccc2c(c1)OCO2 [compound 7k, 2,4-Bis[(E)-2-(2H-1,3-Benzodioxol-5-ylmethylidene)hydrazin-1-yl]-6-(piperidin-1-yl)-1,3,5-triazine] | 14.5 |  | 4.01 |  | 18.4 |  | 0.19 |  | -8.67 |  |  |  |  |  |  |  |
| C/C(=N\Nc1nc(N/N=C(\C)c2ccc([N+](=O)[O-])cc2)nc(N2CCOCC2)n1)c1ccc([N+](=O)[O-])cc1 [compound 8a, 2-(Morpholin-4-yl)-4,6-bis[(E)-2-[1–(4-nitrophenyl)ethylidene]hydrazin-1-yl]-1,3,5-triazine] |  |  |  |  |  |  |  |  |  |  |  | 31.3 | 35.9 | 20.4 | 19 | 16.2 |
| O=C1Nc2ccc(Cl)cc2/C1=N\Nc1nc(N/N=C2/C(=O)Nc3ccc(Cl)cc32)nc(N2CCOCC2)n1 [compound 8b, (3E)-5-Chloro-3-[2–(4-{2-[(3E)-5-chloro-2-oxo-2,3-dihydro-1H-indol-3-ylidene]hydrazin-1-yl}6-(morpholin-4-yl)-1,3,5-triazin-2-yl)hydrazin-1-ylidene]-2,3-dihydro-1H-indol-2-one] | 1.85 |  | 74 |  | 76.4 |  | 11.6 |  | 45 |  |  |  |  |  |  |  |
| COC(=O)C(Cc1ccccc1)Nc1nc(NC(Cc2ccccc2)C(=O)OC)nc(N2CCOCC2)n1 (stereo not drawn) [compound 8c, Methyl 2-({4-[(1-methoxy-1-oxo-3-phenylpropan-2-yl)amino]-6-(morpholin-4-yl)-1,3,5-triazin-2-yl}amino)-3-phenylpropanoate] | -10.6 |  | -18.5 |  | -7.75 |  | -11.6 |  | -8.72 |  |  |  |  |  |  |  |
| O=C(NNc1nc(NNC(=O)c2ccccc2)nc(N2CCOCC2)n1)c1ccccc1 [compound 8d, N'-[4-(morpholin-4-yl)-6-(phenylhydrazido)-1,3,5-triazin-2-yl]benzohydrazide] | 1.24 |  | -12.8 |  | -15.1 |  | -7.98 |  | -19.5 |  |  |  |  |  |  |  |

Source: paper PMC9848300, “Discovery of novel enasidenib analogues targeting inhibition of mutant isocitrate dehydrogenase 2 as antileukaemic agents” (Journal of Enzyme Inhibition and Medicinal Chemistry, 2023)
